Calls of active or inactive are those of the source. No cut-off for these calls is given here.
Key:
[1] = tested on: A549/TR; assay: Inhibition of epithelial-to-mesenchymal transition in human A549/Taxol cells assessed as downregulation of vimentin protein expression at 0.1 to 10 nM incubated for 24 hrs by immunoblot analysis; type: functional, cell-based; details: dose 0.1-10 nM
[2] = target: Focal adhesion kinase 1 (Homo sapiens) (UniProt Q05397); assay: Inhibition of FAK phosphorylation in human A549/Taxol cells at 0.1 to 10 nM incubated for 24 hrs by Western blotting analysis; type: cell-based; details: dose 0.1-10 nM
[3] = tested on: A549/TR; assay: Inhibition of epithelial-to-mesenchymal transition in human A549/Taxol cells assessed as upregulation of E-cadherin protein expression at 0.1 to 10 nM incubated for 24 hrs by immunoblot analysis; type: functional, cell-based; details: dose 0.1-10 nM
[4] = target: T1, Cytochrome P450 1B1 (Homo sapiens, UniProt Q16678); assay: Inhibition of recombinant human CYP1B1 using 7-ethyl-O-resorufin as substrate incubated for 30 mins in presence of NADPH by EROD assay; type: ADME
T1 sequence (Q16678 whole entry): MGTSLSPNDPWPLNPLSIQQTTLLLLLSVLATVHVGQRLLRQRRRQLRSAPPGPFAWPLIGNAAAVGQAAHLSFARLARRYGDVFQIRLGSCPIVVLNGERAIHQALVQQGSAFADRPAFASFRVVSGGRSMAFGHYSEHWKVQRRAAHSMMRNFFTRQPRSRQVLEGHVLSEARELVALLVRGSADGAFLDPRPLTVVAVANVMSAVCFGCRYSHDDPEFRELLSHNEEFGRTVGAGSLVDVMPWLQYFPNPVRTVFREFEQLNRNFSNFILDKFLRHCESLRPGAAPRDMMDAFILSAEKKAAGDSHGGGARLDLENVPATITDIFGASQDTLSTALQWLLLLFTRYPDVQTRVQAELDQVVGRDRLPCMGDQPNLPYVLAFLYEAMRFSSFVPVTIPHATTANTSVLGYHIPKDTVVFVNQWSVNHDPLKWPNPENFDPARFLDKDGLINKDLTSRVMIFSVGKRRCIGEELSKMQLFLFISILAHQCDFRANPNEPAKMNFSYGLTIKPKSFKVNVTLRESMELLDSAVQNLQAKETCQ

[5] = target: T2, von Hippel-Lindau disease tumor suppressor/Cytochrome P450 1B1 (Homo sapiens, UniProt Q16678+P40337); assay: PROTAC activity at VHL/CYP1B1 in human A549/Taxol cells assessed as degradation by measuring fold change in remaining CYP1B1 level at 1 nM incubated for 24 hrs by Western blotting analysis (reference value: 1); type: ADME, cell-based; details: 0.001 µM
[6] = target: T2, von Hippel-Lindau disease tumor suppressor/Cytochrome P450 1B1; assay: PROTAC activity at VHL/CYP1B1 in human A549/Taxol cells assessed as reduction in CYP1B1 level incubated for 24 hrs by Western blotting analysis; type: ADME, cell-based
[7] = target: T2, von Hippel-Lindau disease tumor suppressor/Cytochrome P450 1B1; assay: PROTAC activity at VHL/CYP1B1 in human A549/Taxol cells assessed as reduction in CYP1B1 level at 1000 nM incubated for 24 hrs by Western blotting analysis; type: ADME, cell-based; parameters: scale not given: the % may be the effect or the level left; details: 1 µM
[8] = target: T2, von Hippel-Lindau disease tumor suppressor/Cytochrome P450 1B1; assay: PROTAC activity at VHL/CYP1B1 in human A549/Taxol cells assessed as reduction in CYP1B1 level at 10 nM incubated for 24 hrs by Western blotting analysis; type: ADME, cell-based; parameters: scale not given: the % may be the effect or the level left; details: 0.01 µM
[9] = tested on: A549/TR; assay: Downregulation of P-glycoprotein expression in human A549/Taxol cells at 0.1 to 10 nM by Western blotting analysis; type: functional, cell-based; details: dose 0.1-10 nM
[10] = tested on: A549/TR; assay: Effect on paxillin protein level in human A549/Taxol cells at 0.1 to 10 nM incubated for 24 hrs by Western blotting analysis; type: functional, cell-based; details: dose 0.1-10 nM
[11] = tested on: A549/TR; assay: Reversal of taxol resistance in human A549/Taxol cells assessed as decrease in cell viability at 1 to 10 nM incubated for 48 to 72 hrs by MTT assay; type: functional, cell-based; details: dose 1-10 nM, time 48-72 hrs
[12] = tested on: A549/TR; assay: Inhibition of cell migration in human A549/Taxol cells incubated for 48 hrs by wound healing assay; type: functional, cell-based; details: dose 0.1-10 nM
[13] = target: T2, von Hippel-Lindau disease tumor suppressor/Cytochrome P450 1B1; assay: PROTAC activity at VHL/CYP1B1 in human A549/Taxol cells assessed as reduction in CYP1B1 level at 10 nM incubated for 1 hr by Western blotting analysis; type: ADME, cell-based; details: 0.01 µM
[14] = target: T2, von Hippel-Lindau disease tumor suppressor/Cytochrome P450 1B1; assay: PROTAC activity at VHL/CYP1B1 in human A549/Taxol cells assessed as degradation by measuring fold change in remaining CYP1B1 level at 1000 nM incubated for 24 hrs by Western blotting analysis (reference value: 1); type: ADME, cell-based; details: 1 µM
[15] = target: Proto-oncogene tyrosine-protein kinase Src (Homo sapiens) (UniProt P12931); assay: Inhibition of SRC phosphorylation in human A549/Taxol cells incubated for 24 hrs by Western blotting analysis; type: cell-based; details: dose 0.1-10 nM
[16] = target: T2, von Hippel-Lindau disease tumor suppressor/Cytochrome P450 1B1; assay: PROTAC activity at VHL/CYP1B1 in human A549/Taxol cells assessed as reduction in CYP1B1 level at 1 nM incubated for 24 hrs by Western blotting analysis; type: ADME, cell-based; parameters: scale not given: the % may be the effect or the level left; details: 0.001 µM
[17] = tested on: A549/TR; assay: Reversal of taxol resistance in human A549/Taxol cells assessed as decrease in cell viability at 0.1 nM incubated for 48 to 72 hrs by MTT assay; type: functional, cell-based; details: time 48-72 hrs
[18] = tested on: A549/TR; assay: Inhibition of cell invasion in human A549/Taxol cells at 0.1 to 10 nM incubated for 24 hrs by crystal violet staining based transwell assay; type: functional; details: dose 0.1-10 nM
[19] = tested on: A549/TR; assay: Effect on total FAK protein level in human A549/Taxol cells at 0.1 to 10 nM incubated for 24 hrs by Western blotting analysis; type: functional, cell-based; details: dose 0.1-10 nM
[20] = tested on: A549/TR; assay: Effect on total SRC protein level in human A549/Taxol cells incubated for 24 hrs by Western blotting analysis; type: functional, cell-based; details: dose 0.1-10 nM
[21] = target: von Hippel-Lindau disease tumor suppressor/Cytochrome P450 1A1 (Homo sapiens, UniProt P04798+P40337); assay: PROTAC activity at VHL/CYP1A1 (unknown origin); type: ADME, protein assay
[22] = tested on: A549/TR; assay: Inhibition of epithelial-to-mesenchymal transition in human A549/Taxol cells assessed as downregulation of N-cadherin protein expression at 0.1 to 10 nM incubated for 24 hrs by immunoblot analysis; type: functional, cell-based; details: dose 0.1-10 nM
[23] = tested on: A549/TR; assay: Inhibition of epithelial-to-mesenchymal transition in human A549/Taxol cells assessed as reduction in CYP1B1 expression at 0.1 to 10 nM incubated for 24 hrs by immunoblot analysis; type: functional, cell-based; details: dose 0.1-10 nM
[24] = target: T2, von Hippel-Lindau disease tumor suppressor/Cytochrome P450 1B1; assay: PROTAC activity at VHL/CYP1B1 in human A549/Taxol cells assessed as degradation by measuring fold change in remaining CYP1B1 level incubated for 24 hrs by Western blotting analysis (reference value: 1); type: ADME, cell-based
[25] = target: T3, Cytochrome P450 1A2 (Homo sapiens, UniProt P05177); assay: Inhibition of recombinant human CYP1A2 using 7-ethyl-O-resorufin as substrate incubated for 30 mins in presence of NADPH by EROD assay; type: ADME
T3 sequence (P05177 whole entry): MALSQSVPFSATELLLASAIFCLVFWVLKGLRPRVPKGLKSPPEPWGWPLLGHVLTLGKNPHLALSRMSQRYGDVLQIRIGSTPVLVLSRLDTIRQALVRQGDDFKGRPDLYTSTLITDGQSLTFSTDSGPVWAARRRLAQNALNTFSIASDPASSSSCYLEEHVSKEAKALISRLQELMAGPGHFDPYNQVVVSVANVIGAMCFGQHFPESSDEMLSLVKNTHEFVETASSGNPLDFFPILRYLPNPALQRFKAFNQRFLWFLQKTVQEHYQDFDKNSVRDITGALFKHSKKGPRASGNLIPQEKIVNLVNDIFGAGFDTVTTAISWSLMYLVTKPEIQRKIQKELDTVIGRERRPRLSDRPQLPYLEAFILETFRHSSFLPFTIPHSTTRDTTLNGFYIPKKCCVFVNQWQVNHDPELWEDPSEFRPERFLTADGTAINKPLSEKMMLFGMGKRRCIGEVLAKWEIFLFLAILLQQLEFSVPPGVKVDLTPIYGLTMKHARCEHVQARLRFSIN

[26] = target: T2, von Hippel-Lindau disease tumor suppressor/Cytochrome P450 1B1; assay: PROTAC activity at VHL/CYP1B1 in human A549/Taxol cells assessed as reduction in CYP1B1 level at 100 nM incubated for 24 hrs by Western blotting analysis; type: ADME, cell-based; details: 0.1 µM
[27] = target: Protein cereblon/Cytochrome P450 1B1 (Homo sapiens, UniProt Q16678+Q96SW2); assay: PROTAC activity at CRBN/CYP1B1 in human A549/Taxol cells assessed as degradation by measuring fold change in remaining CYP1B1 level incubated for 24 hrs by Western blotting analysis (reference value: 1); type: ADME, cell-based
[28] = tested on: A549/TR; assay: Reversal of taxol resistance in human A549/Taxol cells assessed as decrease in cell viability at 0.1 to 10 nM incubated for 48 to 72 hrs by MTT assay; type: functional, cell-based; details: dose 0.1-10 nM, time 48-72 hrs
[29] = tested on: A549/TR; assay: Inhibition of cell migration in human A549/Taxol cells at 0.1 to 10 nM incubated for 48 hrs by wound healing assay; type: functional, cell-based; details: dose 0.1-10 nM
[30] = target: T4, Cytochrome P450 1A1 (Homo sapiens, UniProt P04798); assay: Inhibition of recombinant human CYP1A1 using 7-ethyl-O-resorufin as substrate incubated for 30 mins in presence of NADPH by EROD assay; type: ADME
T4 sequence (P04798 whole entry): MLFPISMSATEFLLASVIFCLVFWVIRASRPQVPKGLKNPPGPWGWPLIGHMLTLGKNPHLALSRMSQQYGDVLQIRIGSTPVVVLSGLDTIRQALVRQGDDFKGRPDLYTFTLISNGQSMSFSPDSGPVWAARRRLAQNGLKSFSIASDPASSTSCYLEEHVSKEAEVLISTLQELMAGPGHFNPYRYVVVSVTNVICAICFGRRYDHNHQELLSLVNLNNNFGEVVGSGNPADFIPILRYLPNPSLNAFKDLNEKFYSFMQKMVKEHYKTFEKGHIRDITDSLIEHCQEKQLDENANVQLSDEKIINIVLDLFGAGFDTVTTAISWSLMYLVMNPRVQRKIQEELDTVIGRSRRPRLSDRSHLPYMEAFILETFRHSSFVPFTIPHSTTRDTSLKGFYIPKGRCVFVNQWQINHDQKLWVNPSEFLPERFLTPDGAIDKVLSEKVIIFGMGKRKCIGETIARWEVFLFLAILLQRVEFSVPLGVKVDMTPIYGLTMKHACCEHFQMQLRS

[31] = target: T2, von Hippel-Lindau disease tumor suppressor/Cytochrome P450 1B1; assay: PROTAC activity at VHL/CYP1B1 in human A549/Taxol cells assessed as reduction in CYP1B1 level by Western blotting analysis; type: ADME, cell-based
[32] = target: Proto-oncogene tyrosine-protein kinase Src (Homo sapiens) (UniProt P12931); assay: Inhibition of SRC phosphorylation in human A549/Taxol cells at 0.1 to 10 nM incubated for 24 hrs by Western blotting analysis; type: cell-based; details: dose 0.1-10 nM

T2 sequence (P40337 whole entry, one chain of several): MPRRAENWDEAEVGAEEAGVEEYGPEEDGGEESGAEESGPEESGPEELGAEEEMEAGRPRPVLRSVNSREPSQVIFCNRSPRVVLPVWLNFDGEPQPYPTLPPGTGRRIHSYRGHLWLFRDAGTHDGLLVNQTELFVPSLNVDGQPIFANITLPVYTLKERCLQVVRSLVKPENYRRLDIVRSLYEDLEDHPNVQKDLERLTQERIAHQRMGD
Sequence of Proto-oncogene tyrosine-protein kinase Src (Homo sapiens) (P12931 2-536 limits assumed): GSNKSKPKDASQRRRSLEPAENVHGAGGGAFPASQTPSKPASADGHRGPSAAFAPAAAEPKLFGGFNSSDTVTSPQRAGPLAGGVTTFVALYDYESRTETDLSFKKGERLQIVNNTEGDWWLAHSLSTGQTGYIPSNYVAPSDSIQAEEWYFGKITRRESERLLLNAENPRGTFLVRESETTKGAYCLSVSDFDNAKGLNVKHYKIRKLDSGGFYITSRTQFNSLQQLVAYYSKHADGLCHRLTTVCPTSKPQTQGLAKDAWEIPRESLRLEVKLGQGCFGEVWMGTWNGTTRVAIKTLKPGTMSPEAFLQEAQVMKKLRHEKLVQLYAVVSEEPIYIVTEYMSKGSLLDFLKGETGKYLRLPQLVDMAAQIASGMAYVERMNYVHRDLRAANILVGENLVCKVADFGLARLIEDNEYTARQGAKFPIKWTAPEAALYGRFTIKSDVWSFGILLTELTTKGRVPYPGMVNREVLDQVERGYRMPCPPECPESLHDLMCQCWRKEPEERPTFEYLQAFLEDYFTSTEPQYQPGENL
Sequence of Protein cereblon/Cytochrome P450 1B1 (Q96SW2 whole entry, one chain of several): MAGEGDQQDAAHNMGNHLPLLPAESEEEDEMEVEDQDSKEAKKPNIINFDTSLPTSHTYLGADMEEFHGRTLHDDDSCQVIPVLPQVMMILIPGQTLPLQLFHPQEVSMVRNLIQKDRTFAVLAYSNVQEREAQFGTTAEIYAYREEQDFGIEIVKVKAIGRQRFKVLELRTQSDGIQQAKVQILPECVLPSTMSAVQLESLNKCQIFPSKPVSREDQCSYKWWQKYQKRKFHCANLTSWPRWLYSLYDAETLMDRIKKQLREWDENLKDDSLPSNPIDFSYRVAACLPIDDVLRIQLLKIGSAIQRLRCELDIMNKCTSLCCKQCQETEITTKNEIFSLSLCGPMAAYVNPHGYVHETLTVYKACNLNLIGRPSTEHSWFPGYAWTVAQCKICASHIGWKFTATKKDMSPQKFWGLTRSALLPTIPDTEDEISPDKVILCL
Sequence of von Hippel-Lindau disease tumor suppressor/Cytochrome P450 1A1 (P40337 whole entry, one chain of several): as the sequence (P40337 whole entry, one chain of several) above
Sequence of Focal adhesion kinase 1 (Homo sapiens) (Q05397 2-1052 limits assumed): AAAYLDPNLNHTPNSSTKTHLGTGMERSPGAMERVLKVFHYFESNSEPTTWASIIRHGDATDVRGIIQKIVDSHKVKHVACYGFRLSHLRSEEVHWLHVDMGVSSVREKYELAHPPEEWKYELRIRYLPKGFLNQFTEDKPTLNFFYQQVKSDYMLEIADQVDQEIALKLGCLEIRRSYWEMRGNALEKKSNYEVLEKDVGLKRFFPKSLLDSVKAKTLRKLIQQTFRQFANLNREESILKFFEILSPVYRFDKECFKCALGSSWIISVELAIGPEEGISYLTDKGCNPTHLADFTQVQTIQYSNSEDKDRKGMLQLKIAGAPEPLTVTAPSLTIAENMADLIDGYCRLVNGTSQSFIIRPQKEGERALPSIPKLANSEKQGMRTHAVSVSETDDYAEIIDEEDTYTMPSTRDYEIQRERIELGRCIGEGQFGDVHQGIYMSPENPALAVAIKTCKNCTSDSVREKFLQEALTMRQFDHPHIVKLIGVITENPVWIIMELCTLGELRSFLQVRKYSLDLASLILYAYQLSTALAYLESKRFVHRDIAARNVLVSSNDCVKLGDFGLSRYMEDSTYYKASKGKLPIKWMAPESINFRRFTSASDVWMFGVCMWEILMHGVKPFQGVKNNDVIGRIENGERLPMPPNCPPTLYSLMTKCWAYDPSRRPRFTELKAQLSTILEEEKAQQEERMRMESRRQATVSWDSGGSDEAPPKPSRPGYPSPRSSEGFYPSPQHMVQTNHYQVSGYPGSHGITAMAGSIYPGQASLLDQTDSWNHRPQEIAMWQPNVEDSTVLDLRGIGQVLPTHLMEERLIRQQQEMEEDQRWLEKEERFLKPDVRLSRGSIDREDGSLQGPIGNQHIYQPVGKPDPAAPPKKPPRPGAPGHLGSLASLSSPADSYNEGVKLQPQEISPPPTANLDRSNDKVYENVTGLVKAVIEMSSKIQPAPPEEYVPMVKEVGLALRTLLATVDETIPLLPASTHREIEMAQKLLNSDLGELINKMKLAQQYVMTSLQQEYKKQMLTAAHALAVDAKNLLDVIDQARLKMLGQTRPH

Cc1ncsc1-c1ccc([C@H](C)NC(=O)[C@@H]2C[C@@H](O)CN2C(=O)[C@@H](NC(=O)CCCCCCOc2ccccc2-c2csc(-c3csc(Nc4ccc(Cl)cc4)n3)n2)C(C)(C)C)cc1
inhibition [1]: Active
inhibition [2]: Active
inhibition [3]: Active
inhibition (INH) ([4]; human, recombinant enzyme, 0.5 h, time 30 min): Active
fold change (FC) [5]: 0.5
DC50 [6]: 0.1 nM
Activity [7]: 60%
Activity [8]: 80%
Activity [9]: Active
Activity [10]: Active
Activity [11]: Active
inhibition [12]: Dose-Dependent Effect
Activity [13]: Active
fold change (FC) [14]: 0.6
inhibition [15]: Active
Activity [16]: 50%
Activity [17]: Active
inhibition [18]: Active
Activity [19]: inactive
Activity [20]: Dose-Dependent Effect
Activity [21]: Not Active
inhibition [22]: Active

Clc1ccc(Nc2nc(-c3nc(-c4ccccc4)cs3)cs2)cc1
inhibition [23]: inactive
fold change (FC) [24]: 1
IC50 [25]: 3910 nM
IC50 [4]: 11.9 nM
Activity [26]: Not Active
fold change (FC) [27]: 0.8
Activity [9]: inactive
Activity [10]: Active
Activity [28]: inactive
inhibition [29]: inactive
IC50 [30]: 279 nM
Activity [31]: Not Active
inhibition [32]: Active
